Like-named read-outs stand apart in the source and are kept apart here.
Columns and labels:
[1] = target: T1, CETP (Oryctolagus cuniculus, UniProt P22687); assay: CETP Inhibitor Drug Screening Kit (Biovision K602-100), cholesterol transfer activity; format: biochemical; settings: 100 μM
T1 construct: purchased Biovision Research Products K602-100
T1 sequence (P22687 2-497): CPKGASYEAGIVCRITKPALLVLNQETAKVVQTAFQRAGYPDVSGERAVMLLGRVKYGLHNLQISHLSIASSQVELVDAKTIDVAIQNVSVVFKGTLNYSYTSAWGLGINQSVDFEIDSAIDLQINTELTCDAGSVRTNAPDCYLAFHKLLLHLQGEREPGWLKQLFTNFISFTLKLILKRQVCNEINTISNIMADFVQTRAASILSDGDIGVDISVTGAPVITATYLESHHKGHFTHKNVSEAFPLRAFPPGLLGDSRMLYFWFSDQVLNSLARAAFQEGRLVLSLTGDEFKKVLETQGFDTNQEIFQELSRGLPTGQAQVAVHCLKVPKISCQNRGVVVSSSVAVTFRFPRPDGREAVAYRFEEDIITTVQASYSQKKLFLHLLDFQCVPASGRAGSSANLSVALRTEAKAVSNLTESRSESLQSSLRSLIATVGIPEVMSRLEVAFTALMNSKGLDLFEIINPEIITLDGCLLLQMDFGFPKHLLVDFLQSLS
Protocol: The inhibitory activity of FZX-CETP-001 was determined in vitro using a commercially available CETP Inhibitor Drug Screening Kit (catalog # K602-100). The kit is available from Biovision Research Products, located in Mountain View, Calif. USA. Information regarding the kit is available at the following url addresses: http://www.biovisionlabs.com/cetp-pltp.html; and http://www.biovision.com/pdf/K602-100.pdf
Following the directions provided with the kit, FZX-CETP-001 was assayed for inhibitory activity.

[2] = system: Apo*E3Leiden.hCETP mice; settings: for HDL cholesterol relative to control group / HDL phospholipids relative to control group / LDL cholesterol relative to control group / LDL phospholipids relative to control group: pooled blood
Protocol: A test group of 36 female transgenic Apo*E3Leiden/hCETP mice were fed a high fat western-type diet (containing by weight 15% coconut oil and 0.1% cholesterol) to increase plasma cholesterol levels to around 10 mM. After three weeks the mice were subdivided into 6 groups of 6 mice each, matched for plasma cholesterol, triglycerides and age.
Oral gavage at each separate concentration was administered with an aqueous solution containing by volume 5% ethanol, 4% PEG-400, 1% cremaphor over a period of 1 week per concentration. At the end of each 1 week treatment period, blood samples were collected after a 4 hours fasting period. Mice treated by oral gavage were left alone for 1 week after each collection of blood samples.
For each subcutaneous depot injection experiment, the appropriate dose in sesame oil solution was injected once and blood samples were collected 24 hours after injection (at the end of a 4 hour fasting period). Mice treated by subcutaneous injection were left alone for 13 days after each collection of blood samples.
Blood samples from untreated test animals and from animals treated by gavage or subcutaneous depot injection were pooled separately and a lipoprotein profile was measured by AKTA fast protein liquid chromatography (FPLC)(http://www.gmi-inc.com/BioTechLab/Pharmacia%20AKTA.htm) to determine the level of cholesterol and phospholipid associated with HDL and LDL. […] Additionally, food intake levels (per group), body weights, cholesterol levels, and triglyceride levels, were monitored.

[3] = oral gavage 0.1 mg/kg/day, 1 week
[4] = oral gavage 0.3 mg/kg/day, 1 week
[5] = oral gavage 1.0 mg/kg/day, 1 week
[6] = serum cholesterol profiles, FIGS. 2A-2D, increasing dose
[7] = serum phospholipid profiles, increasing dose
[8] = subcutaneous depot injection 0.3 mg/kg, 24 hours after injection
[9] = subcutaneous depot injection 1.0 mg/kg, 24 hours after injection
[10] = subcutaneous depot injection 3.0 mg/kg, 24 hours after injection

CC(C)(Oc1ccc(Cl)cc1)C(=O)OCCN1CCN(CCCN2c3ccccc3Sc3ccc(C(F)(F)F)cc32)CC1 [FZX-CETP-0001, Fluphenazine 4-chlorophenoxyisobutyric acid ester]
inhibition of CETP [1]: 100% | Cholesterol Transfer Activity, Fluorescence Units ([1]; Average, N = 2): 8312 Fluorescence Units | HDL-C to LDL-C ratio ([2]; lowest tested dosage of 0.1 mg/kg/day by gavage, treated vs untreated control): marked increase | control parameters (food intake levels, body weights, cholesterol levels, triglyceride levels) ([2]; mouse, in vivo): no statistically significant difference | HDL cholesterol relative to control group [2, 3]: 204% | HDL phospholipids relative to control group [2, 3]: 128% | LDL cholesterol relative to control group [2, 3]: 81% | LDL phospholipids relative to control group [2, 3]: 81% | HDL cholesterol relative to control group [2, 4]: 121% | HDL phospholipids relative to control group [2, 4]: 136% | LDL cholesterol relative to control group [2, 4]: 94% | LDL phospholipids relative to control group [2, 4]: 92% | HDL cholesterol relative to control group [2, 5]: 269% | HDL phospholipids relative to control group [2, 5]: 129% | LDL cholesterol relative to control group [2, 5]: 80% | LDL phospholipids relative to control group [2, 5]: 96% | ratio of HDL-C level in the treated to untreated mice [2, 6]: increases | ratio of LDL-C level (total area under the curve) in treated to untreated mice [2, 6]: decreases with increasing dose | ratio of HDL-C level in the treated to untreated mice [2, 7]: increases | ratio of LDL-C phospholipid level (total area under the curve) in treated to untreated mice [2, 7]: decreases with increasing dose | HDL cholesterol relative to control group [2, 8]: 286% | HDL phospholipids relative to control group [2, 8]: 141% | LDL cholesterol relative to control group [2, 8]: 100% | LDL phospholipids relative to control group [2, 8]: 71% | HDL cholesterol relative to control group [2, 9]: 277% | HDL phospholipids relative to control group [2, 9]: 173% | LDL cholesterol relative to control group [2, 9]: 78% | LDL phospholipids relative to control group [2, 9]: 56% | HDL cholesterol relative to control group [2, 10]: 1119% | HDL phospholipids relative to control group [2, 10]: 169% | LDL cholesterol relative to control group [2, 10]: 55% | LDL phospholipids relative to control group [2, 10]: 70% | triglyceride level ([2]; subcutaneous injections at doses at or above 1 mg/kg): slightly reduced

From patent US20060111346A1, “Methods of modulating high-density lipoprotein cholesterol levels and pharmaceutical formulations for the same” (Fazix Corporation., priority 2004, published 2006)
